Laboratory results as given in publication PMC4076210, “Discovery of Novel AKT Inhibitors with Enhanced Anti-Tumor Effects in Combination with the MEK Inhibitor” (PLoS ONE, 2014).
Like-named read-outs stand apart in the source and are kept apart here.

How the values were obtained:
PAK3(h) = biological target: T1, PAK3(h) (Homo sapiens, UniProt O75914); assay: Kinase panel; format: biochemical
T1 construct: purchased Millipore KinaseProfiler

LIMK1(h) = biological target: T2, LIMK1(h) (Homo sapiens, UniProt P53667); assay: Kinase panel; format: biochemical
T2 construct: purchased Millipore KinaseProfiler

EphA4(h) = biological target: T3, EphA4(h) (Homo sapiens, UniProt P54764); assay: Kinase panel; format: biochemical
T3 construct: purchased Millipore KinaseProfiler

Mnk2(h) = biological target: T4, Mnk2(h) (Homo sapiens, UniProt Q9HBH9); assay: Kinase panel; format: biochemical
T4 construct: purchased Millipore KinaseProfiler

PKCγ = PKCγ (Homo sapiens, UniProt P05129); assay: Kinase IC50 assay; format: biochemical
Rsk1(r) = biological target: T5, Rsk1(r) (Rattus norvegicus, UniProt Q63531); assay: Kinase panel; format: biochemical
T5 construct: purchased Millipore KinaseProfiler
T5 sequence (Q63531 whole entry): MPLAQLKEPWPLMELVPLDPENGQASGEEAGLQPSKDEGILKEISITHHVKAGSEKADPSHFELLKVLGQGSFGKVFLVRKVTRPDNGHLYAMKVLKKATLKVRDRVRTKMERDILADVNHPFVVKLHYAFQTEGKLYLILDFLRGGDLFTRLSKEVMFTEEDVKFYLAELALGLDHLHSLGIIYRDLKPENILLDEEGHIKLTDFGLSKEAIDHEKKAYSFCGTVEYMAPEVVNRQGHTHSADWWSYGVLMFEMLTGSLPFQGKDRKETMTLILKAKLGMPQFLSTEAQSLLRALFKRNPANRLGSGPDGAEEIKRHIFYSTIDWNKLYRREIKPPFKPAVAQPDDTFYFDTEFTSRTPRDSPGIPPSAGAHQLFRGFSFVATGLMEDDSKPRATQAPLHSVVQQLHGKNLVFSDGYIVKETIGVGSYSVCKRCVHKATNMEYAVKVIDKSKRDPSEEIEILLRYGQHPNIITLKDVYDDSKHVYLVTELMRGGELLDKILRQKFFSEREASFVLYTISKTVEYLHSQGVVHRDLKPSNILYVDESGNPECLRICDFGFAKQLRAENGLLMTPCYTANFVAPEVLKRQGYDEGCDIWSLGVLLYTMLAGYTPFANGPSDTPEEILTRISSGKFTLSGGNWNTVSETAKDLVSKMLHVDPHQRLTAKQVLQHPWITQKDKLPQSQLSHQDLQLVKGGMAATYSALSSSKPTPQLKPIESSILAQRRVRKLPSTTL

DYRK2(h) = biological target: T6, DYRK2(h) (Homo sapiens, UniProt Q92630); assay: Kinase panel; format: biochemical
T6 construct: purchased Millipore KinaseProfiler
T6 sequence (Q92630 1-601): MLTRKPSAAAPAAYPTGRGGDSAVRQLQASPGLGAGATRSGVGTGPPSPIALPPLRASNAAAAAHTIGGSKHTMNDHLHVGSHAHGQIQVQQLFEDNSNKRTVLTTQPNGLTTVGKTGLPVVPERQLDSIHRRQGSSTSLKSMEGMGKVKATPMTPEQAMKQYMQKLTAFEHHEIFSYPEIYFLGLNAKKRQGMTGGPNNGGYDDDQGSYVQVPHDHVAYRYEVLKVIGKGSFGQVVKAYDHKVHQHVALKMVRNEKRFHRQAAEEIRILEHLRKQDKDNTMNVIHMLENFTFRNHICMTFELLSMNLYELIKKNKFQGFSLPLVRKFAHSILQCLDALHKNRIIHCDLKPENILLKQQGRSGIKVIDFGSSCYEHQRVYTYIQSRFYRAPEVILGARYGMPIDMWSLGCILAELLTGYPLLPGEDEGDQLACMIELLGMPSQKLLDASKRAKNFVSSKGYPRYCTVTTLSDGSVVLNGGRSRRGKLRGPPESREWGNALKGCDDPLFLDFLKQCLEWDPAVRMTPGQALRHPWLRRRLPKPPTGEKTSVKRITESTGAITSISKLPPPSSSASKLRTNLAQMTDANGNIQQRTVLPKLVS

JNK2α2(h) = biological target: T7, JNK2α2(h) (Homo sapiens, UniProt P45984); assay: Kinase panel; format: biochemical
T7 construct: purchased Millipore KinaseProfiler
T7 sequence (P45984 whole entry): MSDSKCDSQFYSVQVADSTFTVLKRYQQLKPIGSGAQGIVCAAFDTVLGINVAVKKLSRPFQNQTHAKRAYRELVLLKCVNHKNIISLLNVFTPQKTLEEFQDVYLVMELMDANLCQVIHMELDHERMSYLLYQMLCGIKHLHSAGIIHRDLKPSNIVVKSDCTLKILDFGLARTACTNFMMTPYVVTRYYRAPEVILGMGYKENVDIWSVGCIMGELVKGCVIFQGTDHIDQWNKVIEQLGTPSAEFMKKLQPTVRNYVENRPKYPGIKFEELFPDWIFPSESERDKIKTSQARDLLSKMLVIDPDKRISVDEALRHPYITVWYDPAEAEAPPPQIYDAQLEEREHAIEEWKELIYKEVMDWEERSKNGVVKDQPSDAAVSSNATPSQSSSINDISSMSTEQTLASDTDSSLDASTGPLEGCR

Blk(m) = biological target: T8, Blk(m) (Mus musculus, UniProt P16277); assay: Kinase panel; format: biochemical
T8 construct: purchased Millipore KinaseProfiler
T8 sequence (P16277 2-499 limits assumed): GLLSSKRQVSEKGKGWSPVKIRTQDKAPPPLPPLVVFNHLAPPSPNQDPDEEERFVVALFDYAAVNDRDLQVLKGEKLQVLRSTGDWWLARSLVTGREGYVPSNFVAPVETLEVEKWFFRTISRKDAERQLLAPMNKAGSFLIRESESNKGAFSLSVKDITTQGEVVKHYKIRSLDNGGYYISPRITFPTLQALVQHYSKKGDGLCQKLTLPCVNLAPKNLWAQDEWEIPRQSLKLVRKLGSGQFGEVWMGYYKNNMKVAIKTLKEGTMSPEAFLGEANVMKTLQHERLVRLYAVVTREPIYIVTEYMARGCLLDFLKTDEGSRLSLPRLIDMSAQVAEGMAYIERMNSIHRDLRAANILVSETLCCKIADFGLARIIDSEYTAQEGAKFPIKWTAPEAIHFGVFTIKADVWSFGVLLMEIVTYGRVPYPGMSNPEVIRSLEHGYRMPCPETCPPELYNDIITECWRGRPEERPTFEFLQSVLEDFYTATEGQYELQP

CaMKI(h) = biological target: T9, CaMKI(h) (Homo sapiens, UniProt Q14012); assay: Kinase panel; format: biochemical
T9 construct: purchased Millipore KinaseProfiler
T9 sequence (Q14012 whole entry): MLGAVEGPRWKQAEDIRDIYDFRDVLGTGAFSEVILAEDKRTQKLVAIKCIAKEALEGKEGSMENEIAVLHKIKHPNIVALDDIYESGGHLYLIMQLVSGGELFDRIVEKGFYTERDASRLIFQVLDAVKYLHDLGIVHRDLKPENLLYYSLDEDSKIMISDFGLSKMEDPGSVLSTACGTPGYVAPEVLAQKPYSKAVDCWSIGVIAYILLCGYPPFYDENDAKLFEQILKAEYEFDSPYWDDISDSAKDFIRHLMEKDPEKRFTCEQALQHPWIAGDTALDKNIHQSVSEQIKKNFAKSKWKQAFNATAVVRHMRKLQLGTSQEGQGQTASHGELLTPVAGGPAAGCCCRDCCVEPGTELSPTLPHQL

FGFR1(V561M)(h) = biological target: T10, FGFR1(V561M)(h) (Homo sapiens, UniProt P11362, V561M); assay: Kinase panel; format: biochemical
T10 construct: purchased Millipore KinaseProfiler
T10 sequence (P11362 22-822 V561M): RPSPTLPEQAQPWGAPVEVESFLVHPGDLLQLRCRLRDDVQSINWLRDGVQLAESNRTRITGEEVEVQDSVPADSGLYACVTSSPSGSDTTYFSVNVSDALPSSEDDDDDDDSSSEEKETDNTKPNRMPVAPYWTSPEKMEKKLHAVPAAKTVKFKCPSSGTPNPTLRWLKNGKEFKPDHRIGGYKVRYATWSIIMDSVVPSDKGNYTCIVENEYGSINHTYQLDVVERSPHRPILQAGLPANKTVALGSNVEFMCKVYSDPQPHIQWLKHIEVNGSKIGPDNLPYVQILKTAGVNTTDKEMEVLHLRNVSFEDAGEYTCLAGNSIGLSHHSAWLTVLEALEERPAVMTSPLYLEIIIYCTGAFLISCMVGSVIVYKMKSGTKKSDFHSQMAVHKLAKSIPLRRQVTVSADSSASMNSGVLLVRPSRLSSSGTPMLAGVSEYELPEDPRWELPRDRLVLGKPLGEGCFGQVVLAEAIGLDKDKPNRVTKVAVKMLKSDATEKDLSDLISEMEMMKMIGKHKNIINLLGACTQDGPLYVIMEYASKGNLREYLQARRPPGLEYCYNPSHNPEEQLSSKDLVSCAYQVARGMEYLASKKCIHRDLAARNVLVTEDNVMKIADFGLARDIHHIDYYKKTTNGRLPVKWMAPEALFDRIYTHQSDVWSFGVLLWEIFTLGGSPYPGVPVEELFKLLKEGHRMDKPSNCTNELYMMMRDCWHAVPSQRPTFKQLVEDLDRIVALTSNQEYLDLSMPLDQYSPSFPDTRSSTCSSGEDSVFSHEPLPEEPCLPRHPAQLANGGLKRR

EphA2(h) = biological target: T11, EphA2(h) (Homo sapiens, UniProt P29317); assay: Kinase panel; format: biochemical
T11 construct: purchased Millipore KinaseProfiler
T11 sequence (P29317 24-976): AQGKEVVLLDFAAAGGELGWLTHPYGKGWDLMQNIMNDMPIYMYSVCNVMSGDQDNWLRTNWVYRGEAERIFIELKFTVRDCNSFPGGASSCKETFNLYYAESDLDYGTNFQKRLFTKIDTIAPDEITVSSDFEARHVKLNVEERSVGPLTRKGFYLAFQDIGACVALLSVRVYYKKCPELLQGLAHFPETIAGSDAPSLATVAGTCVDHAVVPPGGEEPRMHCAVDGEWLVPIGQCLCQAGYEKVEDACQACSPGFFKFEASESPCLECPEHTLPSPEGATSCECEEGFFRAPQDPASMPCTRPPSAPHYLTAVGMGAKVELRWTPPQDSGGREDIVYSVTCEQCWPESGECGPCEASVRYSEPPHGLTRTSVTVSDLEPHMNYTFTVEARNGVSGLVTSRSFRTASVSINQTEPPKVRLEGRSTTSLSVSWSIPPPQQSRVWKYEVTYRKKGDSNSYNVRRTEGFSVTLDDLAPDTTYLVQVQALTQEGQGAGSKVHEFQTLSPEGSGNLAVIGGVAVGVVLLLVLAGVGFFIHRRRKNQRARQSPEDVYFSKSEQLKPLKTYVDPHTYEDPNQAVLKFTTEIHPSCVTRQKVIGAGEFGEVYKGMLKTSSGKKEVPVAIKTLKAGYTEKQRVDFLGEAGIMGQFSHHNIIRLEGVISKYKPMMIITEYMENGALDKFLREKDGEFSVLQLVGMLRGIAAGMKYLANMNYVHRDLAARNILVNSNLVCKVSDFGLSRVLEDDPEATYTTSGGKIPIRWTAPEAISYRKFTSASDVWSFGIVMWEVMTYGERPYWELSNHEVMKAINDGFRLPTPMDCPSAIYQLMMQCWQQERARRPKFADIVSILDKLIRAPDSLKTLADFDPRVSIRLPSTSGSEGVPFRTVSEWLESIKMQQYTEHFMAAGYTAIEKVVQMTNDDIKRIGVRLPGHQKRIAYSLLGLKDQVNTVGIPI

pGSK-3β in BT474 = assay: phospho-GSK3β ELISA; format: cell-based; settings: Homo sapiens, BT-474; BT474, 1 h, mean ± std dev
Experimental: (§1) ELISA plates were prepared by coating with anti-GSK3β antibody (R&D Systems), and blocked with 5% Milk/0.1% Tween-20. Cells were seeded at 25,000 cells/96-well overnight and treated with DMSO or various concentrations of drug for 1 h. Cells were lysed in 20 mM Tris-HCl (pH 8.0), 137 mM NaCl, 2 mM EDTA, 10% glycerol and 1% Triton X-100 and lysates transferred to ELISA plates and incubated overnight. The plates were washed and incubated with rabbit anti-phospho-GSK3β (Ser9) antibody (R&D Systems) for 1 h. After washing, plates were developed using HRP-linked anti-rabbit IgG, and 3,3′,5,5′-tetramethylbenzidine as substrate. Absorption was measured in a microplate spectrophotometer at 450 nm. The phospho-PRAS40 ELISA followed similar methodology as above with the exception of using a commercially available PRAS40 (pThr246) kit (Biosource) and following manufacturers' instructions for the ELISA analysis.

pGSK-3β in LNCaP = assay: phospho-GSK3β ELISA; format: cell-based; settings: Homo sapiens, 1 h, mean ± std dev
Experimental: as §1

ALK(h) = biological target: T12, ALK(h) (Homo sapiens, UniProt Q9UM73); assay: Kinase panel; format: biochemical
T12 construct: purchased Millipore KinaseProfiler

PAR-1Bα(h) = biological target: T13, PAR-1Bα(h) (Homo sapiens, UniProt Q7KZI7); assay: Kinase panel; format: biochemical
T13 construct: purchased Millipore KinaseProfiler
T13 sequence (Q7KZI7 1-725 isoform Q7KZI7-4): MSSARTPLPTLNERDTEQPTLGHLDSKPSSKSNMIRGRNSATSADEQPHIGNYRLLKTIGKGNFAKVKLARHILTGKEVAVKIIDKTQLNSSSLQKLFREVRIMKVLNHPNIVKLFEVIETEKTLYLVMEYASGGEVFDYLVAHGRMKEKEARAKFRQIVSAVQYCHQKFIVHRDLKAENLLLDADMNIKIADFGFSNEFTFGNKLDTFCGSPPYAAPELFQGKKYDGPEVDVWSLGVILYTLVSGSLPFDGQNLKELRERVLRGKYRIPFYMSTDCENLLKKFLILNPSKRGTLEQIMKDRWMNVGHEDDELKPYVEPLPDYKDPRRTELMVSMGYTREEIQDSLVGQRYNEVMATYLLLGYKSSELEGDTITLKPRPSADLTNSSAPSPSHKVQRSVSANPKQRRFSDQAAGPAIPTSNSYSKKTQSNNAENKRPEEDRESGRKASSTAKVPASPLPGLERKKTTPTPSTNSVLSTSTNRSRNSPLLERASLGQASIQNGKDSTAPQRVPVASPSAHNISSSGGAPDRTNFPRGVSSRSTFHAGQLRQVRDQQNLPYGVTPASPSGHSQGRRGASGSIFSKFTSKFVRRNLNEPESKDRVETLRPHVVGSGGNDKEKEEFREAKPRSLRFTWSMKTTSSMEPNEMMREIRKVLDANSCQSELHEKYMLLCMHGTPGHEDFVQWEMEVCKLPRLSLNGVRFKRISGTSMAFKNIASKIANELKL

Met(h) = biological target: T14, Met(h) (Homo sapiens, UniProt P08581); assay: Kinase panel; format: biochemical
T14 construct: purchased Millipore KinaseProfiler

PAK2(h) = biological target: T15, PAK2(h) (Homo sapiens, UniProt Q13177); assay: Kinase panel; format: biochemical
T15 construct: purchased Millipore KinaseProfiler
T15 sequence (Q13177 whole entry): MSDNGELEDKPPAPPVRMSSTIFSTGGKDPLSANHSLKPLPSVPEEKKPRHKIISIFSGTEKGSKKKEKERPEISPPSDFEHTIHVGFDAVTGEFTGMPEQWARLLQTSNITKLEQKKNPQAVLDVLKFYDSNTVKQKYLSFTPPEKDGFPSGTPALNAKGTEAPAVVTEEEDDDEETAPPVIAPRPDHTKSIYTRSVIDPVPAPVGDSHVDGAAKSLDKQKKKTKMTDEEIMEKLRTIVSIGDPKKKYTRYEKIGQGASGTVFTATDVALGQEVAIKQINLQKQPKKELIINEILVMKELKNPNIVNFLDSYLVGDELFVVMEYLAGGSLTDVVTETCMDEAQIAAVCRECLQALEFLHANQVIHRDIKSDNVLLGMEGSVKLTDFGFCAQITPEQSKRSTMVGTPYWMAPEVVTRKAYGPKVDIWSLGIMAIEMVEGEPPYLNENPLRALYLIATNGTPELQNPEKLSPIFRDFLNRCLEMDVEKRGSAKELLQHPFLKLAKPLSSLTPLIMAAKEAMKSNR

PKCη = PKCη (Homo sapiens, UniProt P24723); assay: Kinase IC50 assay; format: biochemical
Abl(h) = biological target: T16, Abl(h) (Homo sapiens, UniProt P00519); assay: Kinase panel; format: biochemical
T16 construct: purchased Millipore KinaseProfiler

Abl (M351T)(h) = biological target: T17, Abl (M351T)(h) (Homo sapiens, UniProt P00519, M351T); assay: Kinase panel; format: biochemical
T17 construct: purchased Millipore KinaseProfiler

PKG1α = PKG1α (Homo sapiens, UniProt Q13976); assay: Kinase IC50 assay; format: biochemical
BT474 cells = assay: Cell cycle analysis; format: cell-based, human; settings: BT474, evident at 1 µM
Experimental: Cells were plated in 96 well plates at a density of 3000-5000 cells/well and allowed to adhere overnight. Cells were treated with DMSO or various concentrations of drug for 72 h, fixed and stained with propidium iodide to stain nuclei (Vindelov, 1982). Cells were analyzed in a flow cytometer (FACSCalibur; BD Biosciences, Franklin Lakes, NJ) and the fraction of cells in each phase of cell cycle was determined using the cell cycle analysis platform contained within the FlowJo software (Tree Star, Ashland, OR).

`Cn1ncc(Cl)c1-c1cc(C(=O)N[C@H](CN)Cc2cccc(F)c2)sc1Cl` [GSK2110183] was tested, and the inhibition at 0.5 µM (PAK3(h)) was -2%, the inhibition at 10 µM (PAK3(h)) was 62% and the inhibition at 0.5 µM (LIMK1(h)) was 21%. For the same molecule, the inhibition at 10 µM (LIMK1(h)) was 25%, the inhibition at 0.5 µM (EphA4(h)) was -1% and the inhibition at 10 µM (EphA4(h)) was -12%. The inhibition at 0.5 µM (Mnk2(h)) was 22%, the inhibition at 10 µM (Mnk2(h)) was 84% and the IC50 (PKCγ) was over 1000 nM. For the same molecule, the inhibition at 0.5 µM (Rsk1(r)) was 24%, the inhibition at 10 µM (Rsk1(r)) was 89% and the inhibition at 0.5 µM (DYRK2(h)) was 2%. The inhibition at 10 µM (DYRK2(h)) was 24%, the inhibition at 0.5 µM (JNK2α2(h)) was -15% and the inhibition at 10 µM (JNK2α2(h)) was -13%. For the same molecule, the inhibition at 0.5 µM (Blk(m)) was -12%, the inhibition at 10 µM (Blk(m)) was 9% and the inhibition at 0.5 µM (CaMKI(h)) was 3%. It also gave an inhibition at 10 µM (CaMKI(h)) of 24%, an inhibition at 0.5 µM (FGFR1(V561M)(h)) of -4% and an inhibition at 10 µM (FGFR1(V561M)(h)) of 16%. For the same molecule, the inhibition at 0.5 µM (EphA2(h)) was -17%, the inhibition at 10 µM (EphA2(h)) was -4% and the IC50 (pGSK-3β in BT474) was 316 ± 91 nM. For the same molecule, the IC50 (pGSK-3β in LNCaP) was 76 ± 16 nM, the inhibition at 0.5 µM (ALK(h)) was -22% and the inhibition at 10 µM (ALK(h)) was 0%. The inhibition at 0.5 µM (PAR-1Bα(h)) was 15%, the inhibition at 10 µM (PAR-1Bα(h)) was 84% and the inhibition at 0.5 µM (Met(h)) was -7%. For the same molecule, the inhibition at 10 µM (Met(h)) was 11%, the inhibition at 0.5 µM (PAK2(h)) was -2% and the inhibition at 10 µM (PAK2(h)) was 23%. For the same molecule, the IC50 (PKCη) was 210 nM, the inhibition at 0.5 µM (Abl(h)) was 8% and the inhibition at 10 µM (Abl(h)) was 4%. For the same molecule, the inhibition at 0.5 µM (Abl (M351T)(h)) was 0%, the inhibition at 10 µM (Abl (M351T)(h)) was 24% and the IC50 (PKG1α) was 0.9 nM.

For `Cn1ncc(Cl)c1-c1cc(C(=O)N[C@H](CN)Cc2ccc(F)c(F)c2)oc1Cl` [GSK2141795], the inhibition at 0.5 µM (PAK3(h); 0.5 µM, read-out: % Inhibition) was 6%, the inhibition at 10 µM (PAK3(h); 10 µM, read-out: % Inhibition) was 28% and the inhibition at 0.5 µM (LIMK1(h); 0.5 µM, read-out: % Inhibition) was 3%. For the same molecule, the inhibition at 10 µM (LIMK1(h); 10 µM, read-out: % Inhibition) was 18%, the inhibition at 0.5 µM (EphA4(h); 0.5 µM, read-out: % Inhibition) was -10% and the inhibition at 10 µM (EphA4(h); 10 µM, read-out: % Inhibition) was -8%. For the same molecule, the inhibition at 0.5 µM (Mnk2(h); 0.5 µM, read-out: % Inhibition) was 9%, the inhibition at 10 µM (Mnk2(h); 10 µM, read-out: % Inhibition) was 80% and the IC50 (PKCγ) was 200 nM. It also gave an inhibition at 0.5 µM (Rsk1(r); 0.5 µM, read-out: % Inhibition) of 57%, an inhibition at 10 µM (Rsk1(r); 10 µM, read-out: % Inhibition) of 95% and an inhibition at 0.5 µM (DYRK2(h); 0.5 µM, read-out: % Inhibition) of 16%. The inhibition at 10 µM (DYRK2(h); 10 µM, read-out: % Inhibition) was 64%, the inhibition at 0.5 µM (JNK2α2(h); 0.5 µM, read-out: % Inhibition) was -15% and the inhibition at 10 µM (JNK2α2(h); 10 µM, read-out: % Inhibition) was -23%. The inhibition at 0.5 µM (Blk(m); 0.5 µM, read-out: % Inhibition) was -35%, the inhibition at 10 µM (Blk(m); 10 µM, read-out: % Inhibition) was 8% and the inhibition at 0.5 µM (CaMKI(h); 0.5 µM, read-out: % Inhibition) was -30%. It also gave an inhibition at 10 µM (CaMKI(h); 10 µM, read-out: % Inhibition) of 16%, an inhibition at 0.5 µM (FGFR1(V561M)(h); 0.5 µM, read-out: % Inhibition) of 15% and an inhibition at 10 µM (FGFR1(V561M)(h); 10 µM, read-out: % Inhibition) of 36%. The inhibition at 0.5 µM (EphA2(h); 0.5 µM, read-out: % Inhibition) was 25%, the inhibition at 10 µM (EphA2(h); 10 µM, read-out: % Inhibition) was 39% and the IC50 (pGSK-3β in BT474) was 143 ± 21 nM. For the same molecule, the IC50 (pGSK-3β in LNCaP) was 34 ± 5 nM, the inhibition at 0.5 µM (ALK(h); 0.5 µM, read-out: % Inhibition) was -8% and the inhibition at 10 µM (ALK(h); 10 µM, read-out: % Inhibition) was -4%. The “effect on cell cycle” value (BT474 cells) was “G1 arrest”, the inhibition at 0.5 µM (PAR-1Bα(h); 0.5 µM, read-out: % Inhibition) was 24% and the inhibition at 10 µM (PAR-1Bα(h); 10 µM, read-out: % Inhibition) was 83%. For the same molecule, the inhibition at 0.5 µM (Met(h); 0.5 µM, read-out: % Inhibition) was -28%, the inhibition at 10 µM (Met(h); 10 µM, read-out: % Inhibition) was -6% and the inhibition at 0.5 µM (PAK2(h); 0.5 µM, read-out: % Inhibition) was 22%. The inhibition at 10 µM (PAK2(h); 10 µM, read-out: % Inhibition) was 25%, the IC50 (PKCη) was 49 nM and the inhibition at 0.5 µM (Abl(h); 0.5 µM, read-out: % Inhibition) was 12%. The inhibition at 10 µM (Abl(h); 10 µM, read-out: % Inhibition) was 13%, the inhibition at 0.5 µM (Abl (M351T)(h); 0.5 µM, read-out: % Inhibition) was -7% and the inhibition at 10 µM (Abl (M351T)(h); 10 µM, read-out: % Inhibition) was -3%. For the same molecule, the IC50 (PKG1α) was under 1 nM.
